Here are results for 14 molecules from ChEMBL document CHEMBL1121424, “Orally active cephalosporins and penicillins” (J Med Chem, 1980).

Assay type in all cases: functional
One assay relates to Enterobacter cloacae. As to the kind of experiment: Tested for inhibition of visible growth of Enterobacter cloacae.
The test system of the next assay is Klebsiella aerogenes. As to the kind of experiment: Tested for inhibition of visible growth of Enterobacter aerogenes.
The next assay relates to Escherichia coli. As to the kind of experiment: Tested for inhibition of visible growth of Escherichia coli.
The subject of a further assay is Proteus mirabilis. Put plainly: Tested for inhibition of visible growth of Proteus mirabilis.
Assay [1] in a line: Tested for inhibition of visible growth of Salmonella schottmuelleri.
Assay [2] concerns Staphylococcus aureus. Put plainly: Tested for inhibition of visible growth of Staphylococcus aureus, benzyl-penicillin sensitive.
Another assay relates to Streptococcus pyogenes. Put plainly: Tested for inhibition of visible growth of Streptococcus pyogenes.
The subject of a further assay is Enterococcus faecalis. As to the kind of experiment: Tested for inhibition of visible growth of Streptococcus faecalis.
For another assay, the system named is Streptococcus pneumoniae. Put plainly: Tested for inhibition of visible growth of Streptococcus pneumoniae.
Another assay deals with Klebsiella pneumoniae. Put plainly: Tested for inhibition of visible growth of Klebsiella pneumoniae.
Assay [3] relates to Staphylococcus aureus. Put plainly: Tested for inhibition of visible growth of Staphylococcus aureus.
The test system of the next assay is Pseudomonas aeruginosa. Put plainly: Tested for inhibition of visible growth of Pseudomonas aeruginosa.

Values after ≈ are worked out from the molar mass of the structure shown.

Take `CC1=C(C(=O)O)N2C(=O)C(NC(=O)C(N)c3ccc4c(c3)OCCO4)C2SC1` (mixture of isomers): the minimal inhibitory concentration (MIC) was more than 200 µg/mL against Enterobacter cloacae; more than 200 µg/mL against Klebsiella aerogenes; 200 µg/mL against Escherichia coli; more than 200 µg/mL in the assay on Proteus mirabilis; 100 µg/mL in assay [1]; 0.8 µg/mL in the assay on Staphylococcus aureus [2]. Besides, the MIC in the assay on Streptococcus pyogenes is 0.8 µg/mL; in the assay with Enterococcus faecalis, more than 200 µg/mL; against Streptococcus pneumoniae, 1.6 µg/mL; with Klebsiella pneumoniae it was 200 µg/mL; in the assay on Staphylococcus aureus [3], 6.2 µg/mL.

`CC(=O)OCC1=C(C(=O)O)N2C(=O)C(NC(=O)C(O)c3ccc4c(c3)OCO4)C2SC1` (racemic): the MIC with Enterobacter cloacae was more than 200 µg/mL; against Klebsiella aerogenes, more than 200 µg/mL; against Escherichia coli, 25 µg/mL (≈ 55.5 µM); with Proteus mirabilis, 50 µg/mL (≈ 111 µM); in [1], 6.2 µg/mL (≈ 13.8 µM); in the assay with Staphylococcus aureus [2], 0.8 µg/mL (≈ 1.78 µM). In addition, the MIC against Streptococcus pyogenes is 0.1 µg/mL (≈ 0.222 µM); in the assay on Enterococcus faecalis it was more than 200 µg/mL; against Streptococcus pneumoniae it was 0.1 µg/mL (≈ 0.222 µM); against Klebsiella pneumoniae it was 25 µg/mL (≈ 55.5 µM); against Staphylococcus aureus [3], 3.1 µg/mL (≈ 6.88 µM).

Regarding `CC(=O)OCC1=C(C(=O)O)N2C(=O)[C@@H](NC(=O)Cc3cccs3)[C@H]2SC1` [CEPHALOTHIN], the MIC is more than 100 µg/mL against Enterobacter cloacae; 100 µg/mL (≈ 252 µM) in the assay on Klebsiella aerogenes; 12.5 µg/mL (≈ 31.5 µM) in the assay with Escherichia coli; 12.5 µg/mL (≈ 31.5 µM) against Proteus mirabilis; 3.1 µg/mL (≈ 7.82 µM) in [1]; 0.2 µg/mL (≈ 0.504 µM) with Staphylococcus aureus [2]. Besides, the minimum inhibitory concentration (MIC) amounted to 0.1 µg/mL (≈ 0.252 µM) in the assay with Streptococcus pyogenes; 100 µg/mL (≈ 252 µM) against Enterococcus faecalis; 0.1 µg/mL (≈ 0.252 µM) in the assay on Streptococcus pneumoniae; 3.1 µg/mL (≈ 7.82 µM) in the assay on Klebsiella pneumoniae; 0.8 µg/mL (≈ 2.02 µM) with Staphylococcus aureus [3].

With `CC(=O)OCC1=C(C(=O)O)N2C(=O)C(NC(=O)[C@H](N)c3ccc4c(c3)CCO4)C2SC1` (stereo partly specified), the MIC was determined as 100 µg/mL (≈ 223 µM) in the assay with Enterobacter cloacae; 100 µg/mL (≈ 223 µM) against Klebsiella aerogenes; 25 µg/mL (≈ 55.9 µM) in the assay on Escherichia coli; 50 µg/mL (≈ 112 µM) in the assay with Proteus mirabilis; 3.1 µg/mL (≈ 6.93 µM) in assay [1]; 0.8 µg/mL (≈ 1.79 µM) against Staphylococcus aureus [2]. The MIC was 0.1 µg/mL (≈ 0.223 µM) against Streptococcus pyogenes; 50 µg/mL (≈ 112 µM) with Enterococcus faecalis; 0.1 µg/mL (≈ 0.223 µM) with Streptococcus pneumoniae; 6.2 µg/mL (≈ 13.9 µM) in the assay on Klebsiella pneumoniae; 3.1 µg/mL (≈ 6.93 µM) in the assay on Staphylococcus aureus [3].

For the molecule `CC1(C)S[C@@H]2[C@H](NC(=O)C(C(=O)O)c3ccccc3)C(=O)N2[C@H]1C(=O)O` (stereo partly specified) [CARBENICILLIN], the MIC in the assay with Enterobacter cloacae was found to be 6.2 µg/mL (≈ 16.4 µM); with Klebsiella aerogenes, 6.2 µg/mL (≈ 16.4 µM); against Escherichia coli, 6.2 µg/mL (≈ 16.4 µM); against Pseudomonas aeruginosa it was 0.8 µg/mL (≈ 2.11 µM); against Proteus mirabilis, 0.8 µg/mL (≈ 2.11 µM); in assay [1] it was 6.2 µg/mL (≈ 16.4 µM). For the same molecule, the MIC against Staphylococcus aureus [2] is 0.4 µg/mL (≈ 1.06 µM); against Streptococcus pyogenes, 0.1 µg/mL (≈ 0.264 µM); in the assay on Enterococcus faecalis it was more than 100 µg/mL; with Streptococcus pneumoniae, 0.4 µg/mL (≈ 1.06 µM); against Klebsiella pneumoniae it was 6.2 µg/mL (≈ 16.4 µM); in the assay on Staphylococcus aureus [3], 25 µg/mL (≈ 66.1 µM).

As to `CC1=C(C(=O)O)N2C(=O)C(NC(=O)C(N)c3ccc4c(c3)CCO4)C2SC1` (racemic), the MIC in the assay on Enterobacter cloacae was more than 200 µg/mL; with Klebsiella aerogenes, more than 200 µg/mL; in the assay on Escherichia coli, 100 µg/mL (≈ 257 µM); in the assay on Proteus mirabilis it was more than 200 µg/mL; in assay [1], 50 µg/mL (≈ 128 µM); with Staphylococcus aureus [2], 1.6 µg/mL (≈ 4.11 µM). Also, the minimal inhibitory concentration (MIC) was 0.4 µg/mL (≈ 1.03 µM) in the assay on Streptococcus pyogenes; more than 200 µg/mL in the assay on Enterococcus faecalis; 3.1 µg/mL (≈ 7.96 µM) against Streptococcus pneumoniae; 50 µg/mL (≈ 128 µM) in the assay on Klebsiella pneumoniae; 3.1 µg/mL (≈ 7.96 µM) against Staphylococcus aureus [3].

In the case of `CC(=O)OCC1=C(C(=O)O)N2C(=O)C(NC(=O)C(N)c3cccc4c3OCO4)C2SC1` (racemic), the MIC in the assay with Enterobacter cloacae was more than 200 µg/mL; in the assay with Klebsiella aerogenes, more than 200 µg/mL; against Escherichia coli, 100 µg/mL (≈ 222 µM); against Proteus mirabilis it was 100 µg/mL (≈ 222 µM); in [1], 25 µg/mL (≈ 55.6 µM); in the assay with Staphylococcus aureus [2], 3.1 µg/mL (≈ 6.9 µM). The MIC with Streptococcus pyogenes was found to be 0.2 µg/mL (≈ 0.445 µM); against Enterococcus faecalis, 200 µg/mL (≈ 445 µM); against Streptococcus pneumoniae, 0.2 µg/mL (≈ 0.445 µM); in the assay with Klebsiella pneumoniae, 50 µg/mL (≈ 111 µM); in the assay on Staphylococcus aureus [3], 3.1 µg/mL (≈ 6.9 µM).

Regarding `CC(=O)OCC1=C(C(=O)O)N2C(=O)C(NC(=O)C(N)c3ccc4c(c3)OCO4)C2SC1` (racemic), the minimal inhibitory concentration (MIC) is more than 200 µg/mL against Enterobacter cloacae; more than 200 µg/mL in the assay with Klebsiella aerogenes; 50 µg/mL (≈ 111 µM) against Escherichia coli; 100 µg/mL (≈ 222 µM) against Proteus mirabilis; 12.5 µg/mL (≈ 27.8 µM) in assay [1]; 3.1 µg/mL (≈ 6.9 µM) in the assay on Staphylococcus aureus [2]. The MIC against Streptococcus pyogenes came to 0.2 µg/mL (≈ 0.445 µM); in the assay with Enterococcus faecalis, 200 µg/mL (≈ 445 µM); in the assay on Streptococcus pneumoniae, 0.4 µg/mL (≈ 0.89 µM); in the assay with Klebsiella pneumoniae it was 25 µg/mL (≈ 55.6 µM); against Staphylococcus aureus [3] it was 6.2 µg/mL (≈ 13.8 µM).

For the molecule `N[C@H](C(=O)NC1C(=O)N2C(C(=O)O)=C(CSc3c[nH]nn3)CSC12)c1ccc2c(c1)OCO2` (stereo partly specified), the minimum inhibitory concentration (MIC) against Escherichia coli is more than 50 µg/mL; in the assay with Proteus mirabilis it was more than 50 µg/mL; in [1], 50 µg/mL (≈ 102 µM); against Staphylococcus aureus [2], 6.2 µg/mL (≈ 12.6 µM); in the assay on Streptococcus pyogenes, 1.6 µg/mL (≈ 3.26 µM); against Enterococcus faecalis it was more than 100 µg/mL. This molecule yielded an MIC in the assay with Klebsiella pneumoniae of more than 50 µg/mL.

Take `CC1=C(C(=O)O)N2C(=O)C(NC(=O)[C@@H](N)c3ccc4c(c3)OCO4)C2SC1` (stereo partly specified): the MIC is more than 100 µg/mL in the assay with Escherichia coli; more than 100 µg/mL against Proteus mirabilis; more than 100 µg/mL in assay [1]; 25 µg/mL (≈ 63.9 µM) against Staphylococcus aureus [2]; 12.5 µg/mL (≈ 31.9 µM) in the assay on Streptococcus pyogenes; more than 100 µg/mL in the assay on Enterococcus faecalis. Besides, the minimal inhibitory concentration (MIC) in the assay on Streptococcus pneumoniae was 50 µg/mL (≈ 128 µM); against Klebsiella pneumoniae, more than 100 µg/mL.

Turning to `Cc1nnc(SCC2=C(C(=O)O)N3C(=O)C(NC(=O)[C@@H](N)c4ccc5c(c4)OCO5)C3SC2)s1` (stereo partly specified), the MIC with Escherichia coli is more than 100 µg/mL; in the assay with Proteus mirabilis it was more than 100 µg/mL; in [1], 50 µg/mL (≈ 95.9 µM); against Staphylococcus aureus [2], 6.2 µg/mL (≈ 11.9 µM); with Streptococcus pyogenes it was 0.8 µg/mL (≈ 1.53 µM); against Enterococcus faecalis it was more than 100 µg/mL. Moreover, the results for the MIC with Streptococcus pneumoniae and in the assay with Klebsiella pneumoniae were 0.8 µg/mL (≈ 1.53 µM) and more than 100 µg/mL, respectively.

As for `CC1(C)SC2C(NC(=O)C(C(=O)O)c3ccc4c(c3)OCO4)C(=O)N2C1C(=O)O` (racemic), the MIC was 100 µg/mL (≈ 237 µM) against Enterobacter cloacae; 50 µg/mL (≈ 118 µM) with Klebsiella aerogenes; 50 µg/mL (≈ 118 µM) against Escherichia coli; 3.1 µg/mL (≈ 7.34 µM) against Pseudomonas aeruginosa; 3.1 µg/mL (≈ 7.34 µM) in the assay with Proteus mirabilis; 50 µg/mL (≈ 118 µM) in [1]. In addition, the MIC in the assay with Staphylococcus aureus [2] is 0.8 µg/mL (≈ 1.89 µM); in the assay on Streptococcus pyogenes, 0.8 µg/mL (≈ 1.89 µM); against Enterococcus faecalis, more than 100 µg/mL; against Streptococcus pneumoniae, 0.2 µg/mL (≈ 0.473 µM); against Klebsiella pneumoniae, 100 µg/mL (≈ 237 µM); against Staphylococcus aureus [3] it was 12.5 µg/mL (≈ 29.6 µM).

Consider `CC(=O)OCC1=C(C(=O)O)N2C(=O)C(NC(=O)C(O)c3ccc4c(c3)CCO4)C2SC1` (racemic), for which the minimum inhibitory concentration (MIC) is more than 200 µg/mL in the assay on Enterobacter cloacae; more than 200 µg/mL against Klebsiella aerogenes; 50 µg/mL (≈ 111 µM) in the assay on Escherichia coli; 50 µg/mL (≈ 111 µM) in the assay with Proteus mirabilis; 12.5 µg/mL (≈ 27.9 µM) in assay [1]; 0.8 µg/mL (≈ 1.78 µM) against Staphylococcus aureus [2]. Moreover, the minimal inhibitory concentration (MIC) against Streptococcus pyogenes is 0.1 µg/mL (≈ 0.223 µM); in the assay with Enterococcus faecalis, more than 200 µg/mL; with Streptococcus pneumoniae, 0.1 µg/mL (≈ 0.223 µM); with Klebsiella pneumoniae, 50 µg/mL (≈ 111 µM); in the assay on Staphylococcus aureus [3], 3.1 µg/mL (≈ 6.91 µM).

`CC1=C(C(=O)O)N2C(=O)C(NC(=O)C(N)c3cccc4c3OCO4)C2SC1` (stereo unspecified): the MIC is more than 200 µg/mL with Enterobacter cloacae; more than 200 µg/mL against Klebsiella aerogenes; more than 200 µg/mL against Escherichia coli; more than 200 µg/mL against Proteus mirabilis; 100 µg/mL (≈ 255 µM) in [1]; 3.1 µg/mL (≈ 7.92 µM) against Staphylococcus aureus [2]. For the same molecule, the MIC against Streptococcus pyogenes was 0.4 µg/mL (≈ 1.02 µM); against Enterococcus faecalis it was more than 200 µg/mL; in the assay with Streptococcus pneumoniae, 6.2 µg/mL (≈ 15.8 µM); against Klebsiella pneumoniae, more than 200 µg/mL; in the assay with Staphylococcus aureus [3], 6.2 µg/mL (≈ 15.8 µM).

The term MIC denotes the least concentration at which growth counts as inhibited. A high value points to a less susceptible organism.
